Experiments:
lambsquarters = assay: Test C preemergence; assay type: in vivo, Chenopodium album; settings: Chenopodium album, pre-emergence
Summary of the method: (§1)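 Seeds are planted in blended loam soil and sand and treated preemergence, while seedlings in a peat moss/vermiculite medium receive postemergence sprays at 2 to 18 cm height. All plants stay in the greenhouse for 13 to 15 days before visual comparison with controls on a 0–100 scale.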

velvetleaf = assay: Test C preemergence; assay type: in vivo, Abutilon theophrasti; settings: Abutilon theophrasti, pre-emergence
Summary of the method: as §1

Italian ryegrass [1] = assay: Test C preemergence; assay type: in vivo, Lolium multiflorum; settings: Lolium multiflorum, pre-emergence
Summary of the method: as §1

yellow nutsedge = assay: Test C preemergence; assay type: in vivo, Cyperus esculentus; settings: Cyperus, pre-emergence
Summary of the method: as §1

galium = assay: Test A postemergence; assay type: in vivo, Galium aparine; settings: 0 to 100 scale where 0 is no effect and 100 is complete control
Summary of the method: (§2)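 Injury scores run from 0, no effect, to 100, complete control, judged by eye against untreated plants roughly 10 days after treatment. Chemicals carried a surfactant in a non-phytotoxic solvent and went onto loam–sand soil preemergence or onto one- to two-leaf seedlings postemergence.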

corn = assay: Test C preemergence; assay type: in vivo, Zea mays; settings: Zea mays, pre-emergence
Summary of the method: as §1

large (Lg) crabgrass = assay: Test C preemergence; assay type: in vivo, Digitaria sanguinalis; settings: Digitaria sanguinalis, pre-emergence
Summary of the method: as §1

ragweed [2] = assay: Test C preemergence; assay type: in vivo, Ambrosia elatior; settings: Ambrosia artemisiifolia, pre-emergence
Summary of the method: as §1

Italian ryegrass [3] = assay: Test A postemergence; assay type: in vivo, Lolium multiflorum; settings: 0 to 100 scale where 0 is no effect and 100 is complete control
Summary of the method: as §2

giant foxtail = assay: Test C preemergence; assay type: in vivo, Setaria faberii; settings: Setaria faberi, pre-emergence
Summary of the method: as §1

ragweed [4] = assay: Test A preemergence; assay type: in vivo, Ambrosia elatior; settings: 0 to 100 scale where 0 is no effect and 100 is complete control
Summary of the method: as §2

oilseed rape = assay: Test C preemergence; assay type: in vivo, Brassica napus; settings: Brassica napus, pre-emergence
Summary of the method: as §1

morningglory = assay: Test C preemergence; assay type: in vivo, Ipomoea coccinea; settings: Ipomoea, pre-emergence
Summary of the method: as §1

pigweed = assay: Test C preemergence; assay type: in vivo, Amaranthus retroflexus; settings: Amaranthus retroflexus, pre-emergence
Summary of the method: as §1

ragweed [5] = assay: Test A postemergence; assay type: in vivo, Ambrosia elatior; settings: 0 to 100 scale where 0 is no effect and 100 is complete control
Summary of the method: as §2

soybean = assay: Test C preemergence; assay type: in vivo, Glycine max; settings: Glycine max, pre-emergence
Summary of the method: as §1

barnyardgrass = assay: Test C preemergence; assay type: in vivo, Echinochloa crus-galli; settings: Echinochloa crus-galli, pre-emergence
Summary of the method: as §1

blackgrass = assay: Test C preemergence; assay type: in vivo, Alopecurus myosuroides; settings: Alopecurus myosuroides, pre-emergence
Summary of the method: as §1

## N#Cc1cccc(Oc2ncc(Cl)cn2)c1-n1cc(SC(F)(F)F)cn1 [Compound 134, 3-[(5-chloro-2-pyrimidinyl)oxy]-2-[4-(trifluoromethylthio)-1-pyrazolyl]benzonitrile]
lambsquarters; 16 g ai/ha, preemergence, scale 0 to 100 (0 no effect, 100 complete control), read-out: Lambsquarters plant response rating
  pest or weed control at 16 g/ha: 60%
lambsquarters; 62 g ai/ha, preemergence, scale 0 (no effect) to 100 (complete control), read-out: Lambsquarters plant response rating
  pest or weed control at 62 g/ha: 100%
lambsquarters; 125 g ai/ha, preemergence, scale 0 (no effect) to 100 (complete control), read-out: Lambsquarters plant response rating
  pest or weed control at 125 g/ha: 100%
lambsquarters; Preemergence, 31 g ai/ha, scale 0 to 100, 0 no effect, 100 complete control, read-out: Plant response rating, Lambsquarters
  pest or weed control at 31 g/ha: 100%
velvetleaf; 16 g ai/ha, preemergence, scale 0 to 100 (0 no effect, 100 complete control), read-out: Velvetleaf plant response rating
  pest or weed control at 16 g/ha: 30%
velvetleaf; 62 g ai/ha, preemergence, scale 0 (no effect) to 100 (complete control), read-out: Velvetleaf plant response rating
  pest or weed control at 62 g/ha: 85%
velvetleaf; 125 g ai/ha, preemergence, scale 0 (no effect) to 100 (complete control), read-out: Velvetleaf plant response rating
  pest or weed control at 125 g/ha: 100%
velvetleaf; Preemergence, 31 g ai/ha, scale 0 to 100, 0 no effect, 100 complete control, read-out: Plant response rating, Velvetleaf
  pest or weed control at 31 g/ha: 35%
Italian ryegrass [1]; 16 g ai/ha, preemergence, scale 0 to 100 (0 no effect, 100 complete control), read-out: Ryegrass, Italian plant response rating
  pest or weed control at 16 g/ha: 0%
Italian ryegrass [1]; 62 g ai/ha, preemergence, scale 0 (no effect) to 100 (complete control), read-out: Ryegrass, Italian plant response rating
  pest or weed control at 62 g/ha: 15%
Italian ryegrass [1]; 125 g ai/ha, preemergence, scale 0 (no effect) to 100 (complete control), read-out: Ryegrass, Italian plant response rating
  pest or weed control at 125 g/ha: 70%
Italian ryegrass [1]; Preemergence, 31 g ai/ha, scale 0 to 100, 0 no effect, 100 complete control, read-out: Plant response rating, Ryegrass, Italian
  pest or weed control at 31 g/ha: 5%
Yellow nutsedge; 16 g ai/ha, preemergence, scale 0 to 100 (0 no effect, 100 complete control), read-out: Nutsedge, Yellow plant response rating
  pest or weed control at 16 g/ha: 0%
Yellow nutsedge; 62 g ai/ha, preemergence, scale 0 (no effect) to 100 (complete control), read-out: Nutsedge, Yellow plant response rating
  pest or weed control at 62 g/ha: 0%
Yellow nutsedge; 125 g ai/ha, preemergence, scale 0 (no effect) to 100 (complete control), read-out: Nutsedge, Yellow plant response rating
  pest or weed control at 125 g/ha: 10%
Yellow nutsedge; Preemergence, 31 g ai/ha, scale 0 to 100, 0 no effect, 100 complete control, read-out: Plant response rating, Nutsedge, Yellow
  pest or weed control at 31 g/ha: 0%
galium; 125 g ai/ha
  Galium plant response rating: 100
galium; 500 g ai/ha
  Plant response rating, Galium: 100
corn; 16 g ai/ha, preemergence, scale 0 to 100 (0 no effect, 100 complete control), read-out: Corn plant response rating
  plant injury at 16 g/ha: 0%
corn; 62 g ai/ha, preemergence, scale 0 (no effect) to 100 (complete control), read-out: Corn plant response rating
  plant injury at 62 g/ha: 40%
corn; 125 g ai/ha, preemergence, scale 0 (no effect) to 100 (complete control), read-out: Corn plant response rating
  plant injury at 125 g/ha: 40%
corn; Preemergence, 31 g ai/ha, scale 0 to 100, 0 no effect, 100 complete control
  Corn plant response rating (crop injury, 0 = no effect, 100 = complete kill) at 31 g/ha: 30%
Large (Lg) crabgrass; 16 g ai/ha, preemergence, scale 0 to 100 (0 no effect, 100 complete control), read-out: Crabgrass, Large plant response rating
  pest or weed control at 16 g/ha: 60%
Large (Lg) crabgrass; 62 g ai/ha, preemergence, scale 0 (no effect) to 100 (complete control), read-out: Crabgrass, Large plant response rating
  pest or weed control at 62 g/ha: 98%
Large (Lg) crabgrass; 125 g ai/ha, preemergence, scale 0 (no effect) to 100 (complete control), read-out: Crabgrass, Large plant response rating
  pest or weed control at 125 g/ha: 100%
Large (Lg) crabgrass; Preemergence, 31 g ai/ha, scale 0 to 100, 0 no effect, 100 complete control, read-out: Plant response rating, Crabgrass, Large
  pest or weed control at 31 g/ha: 98%
Ragweed [2]; 16 g ai/ha, preemergence, scale 0 to 100 (0 no effect, 100 complete control), read-out: Ragweed plant response rating
  pest or weed control at 16 g/ha: 0%
Ragweed [2]; 62 g ai/ha, preemergence, scale 0 (no effect) to 100 (complete control), read-out: Ragweed plant response rating
  pest or weed control at 62 g/ha: 55%
Ragweed [2]; 125 g ai/ha, preemergence, scale 0 (no effect) to 100 (complete control), read-out: Ragweed plant response rating
  pest or weed control at 125 g/ha: 50%
Ragweed [2]; Preemergence, 31 g ai/ha, scale 0 to 100, 0 no effect, 100 complete control, read-out: Plant response rating, Ragweed
  pest or weed control at 31 g/ha: 25%
Italian ryegrass [3]; 125 g ai/ha
  Ryegrass, Italian plant response rating: 50
Italian ryegrass [3]; 500 g ai/ha
  Plant response rating, Ryegrass, Italian: 100
Giant foxtail; 16 g ai/ha, preemergence, scale 0 to 100 (0 no effect, 100 complete control), read-out: Foxtail, Giant plant response rating
  pest or weed control at 16 g/ha: 10%
Giant foxtail; 62 g ai/ha, preemergence, scale 0 (no effect) to 100 (complete control), read-out: Foxtail, Giant plant response rating
  pest or weed control at 62 g/ha: 100%
Giant foxtail; 125 g ai/ha, preemergence, scale 0 (no effect) to 100 (complete control), read-out: Foxtail, Giant plant response rating
  pest or weed control at 125 g/ha: 100%
Giant foxtail; Preemergence, 31 g ai/ha, scale 0 to 100, 0 no effect, 100 complete control, read-out: Plant response rating, Foxtail, Giant
  pest or weed control at 31 g/ha: 65%
Ragweed [4]; 125 g ai/ha
  Plant response rating, Ragweed: 60
Ragweed [4]; 500 g ai/ha
  Ragweed plant response rating: 80
Oilseed rape; 16 g ai/ha, preemergence, scale 0 to 100 (0 no effect, 100 complete control), read-out: Oilseed Rape plant response rating
  plant injury at 16 g/ha: 20%
Oilseed rape; 62 g ai/ha, preemergence, scale 0 (no effect) to 100 (complete control), read-out: Oilseed Rape plant response rating
  plant injury at 62 g/ha: 100%
Oilseed rape; 125 g ai/ha, preemergence, scale 0 (no effect) to 100 (complete control), read-out: Oilseed Rape plant response rating
  plant injury at 125 g/ha: 100%
Oilseed rape; Preemergence, 31 g ai/ha, scale 0 to 100, 0 no effect, 100 complete control, read-out: Plant response rating, Oilseed Rape
  plant injury at 31 g/ha: 45%
morningglory; 16 g ai/ha, preemergence, scale 0 to 100 (0 no effect, 100 complete control), read-out: Morningglory plant response rating
  pest or weed control at 16 g/ha: 5%
morningglory; 62 g ai/ha, preemergence, scale 0 (no effect) to 100 (complete control), read-out: Morningglory plant response rating
  pest or weed control at 62 g/ha: 35%
morningglory; 125 g ai/ha, preemergence, scale 0 (no effect) to 100 (complete control), read-out: Morningglory plant response rating
  pest or weed control at 125 g/ha: 40%
morningglory; Preemergence, 31 g ai/ha, scale 0 to 100, 0 no effect, 100 complete control, read-out: Plant response rating, Morningglory
  pest or weed control at 31 g/ha: 20%
pigweed; 16 g ai/ha, preemergence, scale 0 to 100 (0 no effect, 100 complete control), read-out: Pigweed plant response rating
  pest or weed control at 16 g/ha: 100%
pigweed; 62 g ai/ha, preemergence, scale 0 (no effect) to 100 (complete control), read-out: Pigweed plant response rating
  pest or weed control at 62 g/ha: 100%
pigweed; 125 g ai/ha, preemergence, scale 0 (no effect) to 100 (complete control), read-out: Pigweed plant response rating
  pest or weed control at 125 g/ha: 100%
pigweed; Preemergence, 31 g ai/ha, scale 0 to 100, 0 no effect, 100 complete control, read-out: Plant response rating, Pigweed
  pest or weed control at 31 g/ha: 100%
Ragweed [5]; 125 g ai/ha
  Ragweed plant response rating: 50
Ragweed [5]; 500 g ai/ha
  Plant response rating, Ragweed: 60
soybean; 16 g ai/ha, preemergence, scale 0 to 100 (0 no effect, 100 complete control), read-out: Soybean plant response rating
  plant injury at 16 g/ha: 0%
soybean; 62 g ai/ha, preemergence, scale 0 (no effect) to 100 (complete control), read-out: Soybean plant response rating
  plant injury at 62 g/ha: 20%
soybean; 125 g ai/ha, preemergence, scale 0 (no effect) to 100 (complete control), read-out: Soybean plant response rating
  plant injury at 125 g/ha: 55%
soybean; Preemergence, 31 g ai/ha, scale 0 to 100, 0 no effect, 100 complete control, read-out: Plant response rating, Soybean
  plant injury at 31 g/ha: 15%
barnyardgrass; 16 g ai/ha, preemergence, scale 0 to 100 (0 no effect, 100 complete control), read-out: Barnyardgrass plant response rating
  pest or weed control at 16 g/ha: 0%
barnyardgrass; 62 g ai/ha, preemergence, scale 0 (no effect) to 100 (complete control), read-out: Barnyardgrass plant response rating
  pest or weed control at 62 g/ha: 60%
barnyardgrass; 125 g ai/ha, preemergence, scale 0 (no effect) to 100 (complete control), read-out: Barnyardgrass plant response rating
  pest or weed control at 125 g/ha: 85%
barnyardgrass; Preemergence, 31 g ai/ha, scale 0 to 100, 0 no effect, 100 complete control, read-out: Plant response rating, Barnyardgrass
  pest or weed control at 31 g/ha: 15%
blackgrass; 16 g ai/ha, preemergence, scale 0 to 100 (0 no effect, 100 complete control), read-out: Blackgrass plant response rating
  pest or weed control at 16 g/ha: 0%
blackgrass; 62 g ai/ha, preemergence, scale 0 (no effect) to 100 (complete control), read-out: Blackgrass plant response rating
  pest or weed control at 62 g/ha: 85%
blackgrass; 125 g ai/ha, preemergence, scale 0 (no effect) to 100 (complete control), read-out: Blackgrass plant response rating
  pest or weed control at 125 g/ha: 98%
blackgrass; Preemergence, 31 g ai/ha, scale 0 to 100, 0 no effect, 100 complete control, read-out: Plant response rating, Blackgrass
  pest or weed control at 31 g/ha: 45%

Reference: patent US9695155B2, “Herbicidal substituted pyrimidinyloxy benzene compounds” (E. I. DU PONT DE NEMOURS AND COMPANY, priority 2013, dated 2017)
